Starred links: 1 amine or outer side, 2 acyl side, 3 side chain; linkers in the order of their positions; H or OH if unused. Non-standard residues stand in square brackets, D forms with d. Residues, ends and D or L forms follow the SMILES beside them. No end group written: not given here. *: point of attachment. Phe(4-Cl) = N[C@@H](Cc1ccc(Cl)cc1)C(=O)O; Adipoyl = O=C(CCCCC(=O)[*:2])[*:1]; Cha = N[C@@H](CC1CCCCC1)C(=O)O; Dap = NC[C@H](N)C(=O)O; Hexanoyl = CCCCCC(=O)*
Assays:
[1] = target: T1, APJ (Homo sapiens, UniProt P35414); assay: Receptor binding assay-2 (compound in Reference Example 2 used); conditions: compound in Reference Example 2 used as ligand; read-out: IC50
T1 construct: expressed in transfected cells; host or cells: CHO (CHO-A10; clone 6 for the cAMP assay)
T1 sequence (P35414 1-380): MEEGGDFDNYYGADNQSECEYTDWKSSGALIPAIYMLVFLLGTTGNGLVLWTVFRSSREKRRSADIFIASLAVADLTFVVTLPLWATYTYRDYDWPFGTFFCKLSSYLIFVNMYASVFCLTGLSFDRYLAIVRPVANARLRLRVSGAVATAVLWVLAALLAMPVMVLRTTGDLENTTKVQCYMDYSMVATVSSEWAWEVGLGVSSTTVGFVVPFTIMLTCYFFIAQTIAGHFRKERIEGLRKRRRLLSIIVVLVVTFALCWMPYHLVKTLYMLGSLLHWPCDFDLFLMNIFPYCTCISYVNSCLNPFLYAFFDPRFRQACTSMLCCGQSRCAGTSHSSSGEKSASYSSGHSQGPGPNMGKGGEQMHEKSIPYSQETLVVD
Protocol: (§1) This product was mixed with an equal volume of an assay buffer (50 mM Tris-HCl/pH 7.5, 5 mM EDTA, 0.5 mM PMSF, 20 μg/ml leupeptin, 0.1 μg/ml pepstatin A, 4 μg/ml E-64 (Peptide Research Laboratory, Co.), 0.1% bovine serum albumin) and stored at −30° C. before use.
(§2) CHO-A10 cells were cultured, recovered with PBS containing 5 mM EDTA from a culture vessel, and suspended in the above-mentioned assay buffer not containing bovine serum albumin. The cells were homogenized 3 times at 12,000 rpm for 15 seconds by a Polytron homogenizer (manufactured by Kinematica Inc.) and then centrifuged (1000×g, 4° C., 10 minutes), and the supernatant was recovered. The precipitates were subjected again to the same procedure as above, and the respective supernatants were combined and centrifuged at 100,000×g, 4° C. for 1 hour, to recover precipitates (membrane fraction). The membrane fraction was suspended again in a small amount of the buffer, homogenized with a Teflon homogenizer and stored at −80° C. before use.
(§3) Binding assay was carried out under the following conditions. […] Measurement of non-specific binding was carried out using a well containing 1 μM unlabeled compound in place of the test sample. After the incubation was finished, a cell harvester (Packard) adapted to 96 wells and a filter unit (GF/C, Packard) were used for separation thereby capturing the membrane fraction on the filter. After the filter was sufficiently dried, Microcinti 0 (Packard) was added thereto, and using Top Count (Packard), the amount of the labeled material captured together with the membrane fraction on the filter was measured.

[2] = target: T1, APJ; assay: Inhibitory activity on forskolin-stimulated cAMP production in CHO-A10 clone 6 cells; type: cell-based; conditions: read-out: EC50
Protocol: Measurement of an Inhibitory Activity on Forskolin-Stimulated cAMP Production
Hanks' balanced salt solution (HBSS) containing 0.2 mM 3-isobutyl-1-methylxanthine (IBMX) and 0.05% bovine serum albumin was prepared as an assay buffer, and each well was washed twice with 500 μl assay buffer and pre-incubated at 37° C. for 30 minutes. Further, each well was washed once with 500 μl assay buffer, and a sample dissolved in the assay buffer containing 1 μM forskolin was added at a volume of 500 μl/well and incubated at 37° C. for 30 minutes. Wells incubated with the assay buffer not containing forskolin were prepared in the same manner in order to determine the basal level of cellular cAMP production, while wells incubated with the assay buffer containing forskolin were also prepared in order to determine the maximum level of cAMP production stimulated with forskolin. After incubation was finished, each well was washed once with 500 μl assay buffer, and 500 μl lysis buffer 1B attached to a cAMP EIA system from Amersham was added to each well, to extract cAMP. According to the protocol of the kit, 100 μl of each extract was used to determine the level of cAMP. For the inhibitory activity of the sample on cAMP production, the difference (inhibited cAMP production) between the maximum level and the level of cAMP in the sample-containing wells was determined, and the inhibitory activity was expressed as percentage relative to the increased level of cAMP production stimulated with forskolin (that is, the difference between the maximum level and basal level), and from this dose-reaction curve, the EC50 was determined.

[3] = target: T1, APJ; assay: Receptor binding assay-1 (125I-labeled compound in Reference Example 1, CHO-A10 membrane fraction); conditions: 125I-labeled compound in Reference Example 1 at 100 pM
Protocol: as §1, §2, §3

| Molecule | IC50 [1] [nM] | EC50 [2] [nM] | IC50 ([3]; room temperature […]) [nM] | IC50 ([3]; room temperature 1.5 hours) [nM] |
| --- | --- | --- | --- | --- |
| CC(C)C[C@H](NC(=O)[C@H](CCCNC(=N)N)NC(=O)[C@@H]1CCCN1C(=O)[C@H](CCCNC(=N)N)NC(=O)[C@H](CCC(N)=O)NC(=O)[C@H](CCCNC(=N)N)NC(=O)[C@@H](N)CCCNC(=N)N)C(=O)N[C@@H](CO)C(=O)N[C@@H](Cc1c[nH]cn1)C(=O)N[C@@H](CCCCN)C(=O)NCC(=O)N1CCC[C@H]1C(=O)N[C@@H](CC1CCCCC1)C(=O)N1CCC[C@H]1C(=O)N[C@@H](Cc1ccc(Cl)cc1)C(=O)O [Compound in Ex. 2] | 0.33 | 0.53 | 0.47 | – |
| CSCC[C@H](NC(=O)[C@@H]1CCCN1C(=O)CNC(=O)[C@H](CCCNC(=N)N)NC(=O)[C@H](C)NC(=O)[C@H](CO)NC(=O)[C@H](CC(C)C)NC(=O)[C@H](CCCNC(=N)N)NC(=O)[C@@H]1CCCN1C(=O)[C@@H](N)CCCNC(=N)N)C(=O)N1CCC[C@H]1C(=O)N[C@@H](Cc1ccc(Cl)cc1)C(=O)O [Compound in Ex. 3] (H-RPRLSARGPMP[Phe(4-Cl)]-OH; N-terminus and C-terminus assumed) | 0.036 | 0.32 | 0.91 | – |
| CC(C)C[C@H](NC(=O)[C@H](CCCNC(=N)N)NC(=O)[C@@H]1CCCN1C(=O)[C@@H](N)CCCNC(=N)N)C(=O)N[C@@H](CO)C(=O)N[C@@H](C)C(=O)N[C@@H](CCCNC(=N)N)C(=O)NCC(=O)N1CCC[C@H]1C(=O)N[C@@H](CC1CCCCC1)C(=O)N[C@@H](Cc1ccc(Cl)cc1)C(=O)O [Compound in Ex. 4] (H-RPRLSARGP[Cha][Phe(4-Cl)]-OH; N-terminus and C-terminus assumed) | 0.1 | 0.65 | 1 | – |
| CC(C)C[C@H](NC(=O)[C@H](CCCNC(=N)N)NC(=O)[C@@H]1CCCN1C(=O)[C@@H](N)CCCNC(=N)N)C(=O)N[C@@H](CO)C(=O)N[C@@H](C)C(=O)N[C@@H](CCCNC(=N)N)C(=O)NCC(=O)N1CCC[C@H]1C(=O)N[C@@H](CC1CCCCC1)C(=O)N1CCC[C@H]1C(=O)N[C@@H](Cc1ccc(Cl)cc1)C(=O)O [Compound in Ex. 5] (H-RPRLSARGP[Cha]P[Phe(4-Cl)]-OH) | 0.13 | 0.51 | 1.2 | – |
| CC(C)C[C@H](NC(=O)[C@H](CCCNC(=N)N)NC(=O)[C@@H]1CCCN1C(=O)[C@H](CCCNC(=N)N)NC(=O)[C@H](CCC(N)=O)NC(=O)[C@H](CCCNC(=N)N)NC(=O)[C@@H](N)CCCNC(=N)N)C(=O)N[C@@H](CO)C(=O)N[C@@H](C)C(=O)N[C@@H](CCCNC(=N)N)C(=O)NCC(=O)N1CCC[C@H]1C(=O)N[C@@H](CC1CCCCC1)C(=O)O [Compound in Ex. 6] | 0.046 | 0.55 | 1.4 | – |
| CC(C)C[C@H](NC(=O)[C@H](CCCNC(=N)N)NC(=O)[C@@H]1CCCN1C(=O)[C@@H](N)CCCNC(=N)N)C(=O)N[C@@H](CO)C(=O)N[C@@H](Cc1c[nH]cn1)C(=O)N[C@@H](CCCCN)C(=O)NCC(=O)N1CCC[C@H]1C(=O)N[C@@H](CC1CCCCC1)C(=O)N1CCC[C@H]1C(=O)N[C@@H](Cc1ccc(Cl)cc1)C(=O)O [Compound in Ex. 7] | 0.12 | 0.41 | 1.4 | – |
| CSCC[C@H](NC(=O)[C@@H]1CCCN1C(=O)CNC(=O)[C@H](CCCCN)NC(=O)[C@H](Cc1c[nH]cn1)NC(=O)[C@H](CO)NC(=O)[C@H](CC(C)C)NC(=O)[C@H](CCCNC(=N)N)NC(=O)[C@@H]1CCCN1C(=O)[C@@H](N)CCCNC(=N)N)C(=O)N1CCC[C@H]1C(=O)N[C@@H](Cc1ccc(Cl)cc1)C(=O)O [Compound in Ex. 8] | 0.039 | 0.34 | – | 13 |
| CC(C)C[C@H](NC(=O)[C@H](CCCNC(=N)N)NC(=O)[C@@H]1CCCN1C(=O)[C@@H](N)CCCNC(=N)N)C(=O)N[C@@H](CO)C(=O)N[C@@H](C)C(=O)N[C@@H](CCCNC(=N)N)C(=O)NCC(=O)N1CCC[C@H]1C(=O)N[C@@H](CC1CCCCC1)C(=O)N1CCC[C@H]1C(=O)N[C@@H](Cc1ccccc1)C(=O)O [Compound in Ex. 11] (H-RPRLSARGP[Cha]PF-OH; N-terminus and C-terminus assumed) | 0.084 | 0.59 | 2.2 | – |
| CC(C)C[C@H](NC(=O)[C@H](CCCNC(=N)N)NC(=O)[C@@H]1CCCN1C(=O)[C@@H](N)CCCNC(=N)N)C(=O)N[C@@H](Cc1ccccc1)C(=O)N[C@@H](C)C(=O)N[C@@H](CCCNC(=N)N)C(=O)NCC(=O)N1CCC[C@H]1C(=O)N[C@@H](CC1CCCCC1)C(=O)N1CCC[C@H]1C(=O)N[C@@H](Cc1ccc(Cl)cc1)C(=O)O [Compound in Ex. 12] (H-RPRLFARGP[Cha]P[Phe(4-Cl)]-OH) | 0.38 | 1.2 | 2.3 | – |
| CC(C)C[C@H](NC(=O)[C@H](CCCNC(=N)N)NC(=O)[C@@H]1CCCN1C(=O)[C@@H](N)CCCNC(=N)N)C(=O)N[C@@H](Cc1ccccc1)C(=O)N[C@@H](Cc1c[nH]cn1)C(=O)N[C@@H](CCCCN)C(=O)NCC(=O)N1CCC[C@H]1C(=O)N[C@@H](CC1CCCCC1)C(=O)N1CCC[C@H]1C(=O)N[C@@H](Cc1ccc(Cl)cc1)C(=O)O [Compound in Ex. 13] (H-RPRLFHKGP[Cha]P[Phe(4-Cl)]-OH; N-terminus and C-terminus assumed) | 0.29 | 1 | 2.7 | – |
| CC(=O)NC[C@H](NC(=O)[C@H](CO)NC(=O)[C@H](CC(C)C)NC(=O)[C@H](CCCNC(=N)N)NC(=O)[C@@H]1CCCN1C(=O)[C@@H](N)CCCNC(=N)N)C(=O)N[C@@H](CCCNC(=N)N)C(=O)NCC(=O)N1CCC[C@H]1C(=O)N[C@@H](CC1CCCCC1)C(=O)N1CCC[C@H]1C(=O)N[C@@H](Cc1ccc(Cl)cc1)C(=O)O [Compound in Ex. 66, Arg-Pro-Arg-Leu-Ser-Dap(Ac)-Arg-Gly-Pro-Cha-Pro-Phe(Cl)] (H-RPRLS[Dap](Ac)RGP[Cha]P[Phe(4-Cl)]-OH) | 0.11 | 0.69 | – | – |
| CCCCCC(=O)NC[C@H](NC(=O)[C@H](CO)NC(=O)[C@H](CC(C)C)NC(=O)[C@H](CCCNC(=N)N)NC(=O)[C@@H]1CCCN1C(=O)[C@@H](N)CCCNC(=N)N)C(=O)N[C@@H](CCCNC(=N)N)C(=O)NCC(=O)N1CCC[C@H]1C(=O)N[C@@H](CC1CCCCC1)C(=O)N1CCC[C@H]1C(=O)N[C@@H](Cc1ccc(Cl)cc1)C(=O)O [Compound in Ex. 67, Arg-Pro-Arg-Leu-Ser-Dap(C6)-Arg-Gly-Pro-Cha-Pro-Phe(Cl)] (H-RPRLS[Dap](Hexanoyl)RGP[Cha]P[Phe(4-Cl)]-OH; N-terminus and C-terminus assumed) | 0.45 | 1.1 | – | – |
| CC(C)C[C@H](NC(=O)[C@H](CCCNC(=N)N)NC(=O)[C@@H]1CCCN1C(=O)[C@@H](N)CCCNC(=N)N)C(=O)N[C@@H](CO)C(=O)N[C@@H](CNC(=O)CCCCC(=O)O)C(=O)N[C@@H](CCCNC(=N)N)C(=O)NCC(=O)N1CCC[C@H]1C(=O)N[C@@H](CC1CCCCC1)C(=O)N1CCC[C@H]1C(=O)N[C@@H](Cc1ccc(Cl)cc1)C(=O)O [Compound in Ex. 68, Arg-Pro-Arg-Leu-Ser-Dap(Adi)-Arg-Gly-Pro-Cha-Pro-Phe(Cl)] (H-RPRLS[Dap](Adipoyl)RGP[Cha]P[Phe(4-Cl)]-OH; N-terminus and C-terminus assumed) | 0.13 | 0.42 | – | – |
| RPRLFARGPMF [Compound in Ex. 47] | 1.8 | 0.36 | – | – |
| RPRLFARGPMPF [Compound in Ex. 31] | 0.27 | 0.14 | – | – |

— patent publication US20040116336A1, “Peptide derivatives” (priority 2002, published 2004)
